ChEMBL document CHEMBL1201861, “Genomics of Drug Sensitity in Cancer screening data, Wellcome Trust Sanger Institute”
pIC50: −log10 of the molar value.

Assays:
NBsusSR = experiment: cells; assay type: functional, cell-based; conditions: Homo sapiens;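 further: growth inhibition of the human cell line, read out with a cell viability assay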
Description: SANGER: Inhibition of human NBsusSR cell growth in a cell viability assay.

VMRC-RCZ = experiment: cells; assay type: functional, cell-based; conditions: Homo sapiens
Description: SANGER: Inhibition of human VMRC-RCZ cell growth in a cell viability assay.

HSC-3 = experiment: cells; assay type: functional, cell-based; conditions: Homo sapiens
Description: SANGER: Inhibition of human HSC-3 cell growth in a cell viability assay.

NCI-H460 = experiment: cells; assay type: functional, cell-based; conditions: Homo sapiens;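 further: cell viability assay scoring growth inhibition of human NCI-H460 cells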
Description: SANGER: Inhibition of human NCI-H460 cell growth in a cell viability assay.

SK-MEL3 = experiment: cells; assay type: functional, cell-based, SK-MEL-3; conditions: Homo sapiens;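 further: growth inhibition of human SK-MEL-3 cells, read out with a cell viability assay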
Description: SANGER: Inhibition of human SK-MEL-3 cell growth in a cell viability assay.

ZR-75-30 = experiment: cells; assay type: functional, cell-based; conditions: Homo sapiens;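 further: growth inhibition of ZR-75-30 cells, measured with a cell viability readout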
Description: SANGER: Inhibition of human ZR-75-30 cell growth in a cell viability assay.

D-423MG = experiment: cells; assay type: functional, cell-based; conditions: Homo sapiens
Description: SANGER: Inhibition of human D-423MG cell growth in a cell viability assay.

KYSE-270 = experiment: cells; assay type: functional, cell-based; conditions: Homo sapiens;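 further: cell growth inhibition measured with a viability assay in the human KYSE-270 line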
Description: SANGER: Inhibition of human KYSE-270 cell growth in a cell viability assay.

HT-1376 = experiment: cells; assay type: functional, cell-based; conditions: Homo sapiens
Description: SANGER: Inhibition of human HT-1376 cell growth in a cell viability assay.

OVCAR-8 = experiment: cells; assay type: functional, cell-based; conditions: Homo sapiens;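 further: growth inhibition of human OVCAR-8 cells, read out by a cell viability assay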
Description: SANGER: Inhibition of human OVCAR-8 cell growth in a cell viability assay.

NB14 = experiment: cells; assay type: functional, cell-based, Homo sapiens; conditions: Homo sapiens, NB14;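 further: growth inhibition of NB14 cells measured with a cell viability assay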
Description: SANGER: Inhibition of human NB14 cell growth in a cell viability assay.

SK-MES-1 = experiment: cells; assay type: functional, cell-based; conditions: Homo sapiens;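 further: growth inhibition of human SK-MES-1 cells, read out with a cell viability assay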
Description: SANGER: Inhibition of human SK-MES-1 cell growth in a cell viability assay.

TGBC11TKB = experiment: cells; assay type: functional, cell-based; conditions: Homo sapiens;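 further: growth inhibition of human TGBC11TKB cells, measured by a cell viability assay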
Description: SANGER: Inhibition of human TGBC11TKB cell growth in a cell viability assay.

H-EMC-SS = experiment: cells; assay type: functional, cell-based; conditions: Homo sapiens
Description: SANGER: Inhibition of human H-EMC-SS cell growth in a cell viability assay.

JEG-3 = experiment: cells; assay type: functional, cell-based; conditions: Homo sapiens;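 further: growth inhibition of human JEG-3 cells, read out with a cell viability assay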
Description: SANGER: Inhibition of human JEG-3 cell growth in a cell viability assay.

NCI-H520 = experiment: cells; assay type: functional, cell-based; conditions: Homo sapiens;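 further: growth inhibition of NCI-H520 cells, measured by a cell viability assay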
Description: SANGER: Inhibition of human NCI-H520 cell growth in a cell viability assay.

HT-3 = experiment: cells; assay type: functional, cell-based; conditions: Homo sapiens;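 further: growth inhibition measured with a cell viability readout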
Description: SANGER: Inhibition of human HT-3 cell growth in a cell viability assay.

BHY = experiment: cells; assay type: functional, cell-based; conditions: Homo sapiens;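 further: cell growth inhibition read out by a viability assay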
Description: SANGER: Inhibition of human BHY cell growth in a cell viability assay.

C32 = experiment: cells; assay type: functional, cell-based; conditions: Homo sapiens;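 further: cell viability assay, with IC50 reflecting inhibition of C32 cell growth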
Description: SANGER: Inhibition of human C32 cell growth in a cell viability assay.

H4 = experiment: cells; assay type: functional, cell-based; conditions: Homo sapiens
Description: SANGER: Inhibition of human H4 cell growth in a cell viability assay.

OC-314 = experiment: cells; assay type: functional, cell-based; conditions: Homo sapiens
Description: SANGER: Inhibition of human OC-314 cell growth in a cell viability assay.

ECC10 = experiment: cells; assay type: functional, cell-based; conditions: Homo sapiens;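 further: growth inhibition of ECC10 cells, read out by a cell viability assay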
Description: SANGER: Inhibition of human ECC10 cell growth in a cell viability assay.

BCPAP = experiment: cells; assay type: functional, cell-based; conditions: Homo sapiens;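 further: growth inhibition of BCPAP cells, read out in a cell viability assay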
Description: SANGER: Inhibition of human BCPAP cell growth in a cell viability assay.

CAL-33 = experiment: cells; assay type: functional, cell-based; conditions: Homo sapiens;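 further: growth inhibition of CAL-33 cells, read out with a cell viability assay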
Description: SANGER: Inhibition of human CAL-33 cell growth in a cell viability assay.

NCI-H2228 = experiment: cells; assay type: functional, cell-based; conditions: Homo sapiens;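 further: growth inhibition of human NCI-H2228 cells, read out by a cell viability assay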
Description: SANGER: Inhibition of human NCI-H2228 cell growth in a cell viability assay.

SK-LU-1 = experiment: cells; assay type: functional, cell-based; conditions: Homo sapiens;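 further: cell viability assay measuring growth inhibition of human SK-LU-1 cells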
Description: SANGER: Inhibition of human SK-LU-1 cell growth in a cell viability assay.

MIA PaCa-2 = experiment: cells; assay type: functional, cell-based; conditions: Homo sapiens;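 further: growth inhibition of MIA PaCa-2 cells, read out with a cell viability assay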
Description: SANGER: Inhibition of human MIA-PaCa-2 cell growth in a cell viability assay.

HPAF-II = experiment: cells; assay type: functional, cell-based; conditions: Homo sapiens;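 further: growth inhibition of HPAF-II cells, read out with a cell viability assay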
Description: SANGER: Inhibition of human HPAF-II cell growth in a cell viability assay.

RCM-1 = experiment: cells; assay type: functional, cell-based; conditions: Homo sapiens;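 further: growth inhibition of the RCM-1 line, determined with a cell viability readout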
Description: SANGER: Inhibition of human RCM-1 cell growth in a cell viability assay.

PANC-08-13 = experiment: cells; assay type: functional, cell-based; conditions: Homo sapiens
Description: SANGER: Inhibition of human PANC-08-13 cell growth in a cell viability assay.

CAPAN-1 = experiment: cells; assay type: functional, cell-based; conditions: Homo sapiens;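 further: growth suppression of CAPAN-1 cells, read out by a cell viability assay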
Description: SANGER: Inhibition of human CAPAN-1 cell growth in a cell viability assay.

GCT = experiment: cells; assay type: functional, cell-based; conditions: Homo sapiens;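 further: GCT cell line proliferation inhibition, read out with a cell viability assay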
Description: SANGER: Inhibition of human GCT cell growth in a cell viability assay.

SW1573 = experiment: cells; assay type: functional, cell-based; conditions: Homo sapiens;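 further: growth inhibition of SW1573 cells, read out with a cell viability assay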
Description: SANGER: Inhibition of human SW1573 cell growth in a cell viability assay.

MG-63 = experiment: cells; assay type: functional, cell-based; conditions: Homo sapiens;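 further: growth inhibition of human MG-63 cells, read out with a cell viability assay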
Description: SANGER: Inhibition of human MG-63 cell growth in a cell viability assay.

CHP-212 = experiment: cells; assay type: functional, cell-based; conditions: Homo sapiens
Description: SANGER: Inhibition of human CHP-212 cell growth in a cell viability assay.

KNS-62 = experiment: cells; assay type: functional, cell-based; conditions: Homo sapiens;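 further: inhibition of cell growth, read out with a cell viability assay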
Description: SANGER: Inhibition of human KNS-62 cell growth in a cell viability assay.

BT-549 = experiment: cells; assay type: functional, cell-based; conditions: Homo sapiens
Description: SANGER: Inhibition of human BT-549 cell growth in a cell viability assay.

SK-OV-3 = experiment: cells; assay type: functional, cell-based; conditions: Homo sapiens;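 further: growth inhibition of SK-OV-3 human cells, read out with a cell viability assay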
Description: SANGER: Inhibition of human SK-OV-3 cell growth in a cell viability assay.

647-V = experiment: cells; assay type: functional, cell-based; conditions: Homo sapiens;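 further: growth inhibition of 647-V cells, read out with a cell viability assay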
Description: SANGER: Inhibition of human 647-V cell growth in a cell viability assay.

Daoy = experiment: cells; assay type: functional, cell-based; conditions: Homo sapiens;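 further: daoy cell growth inhibition, read out as cell viability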
Description: SANGER: Inhibition of human Daoy cell growth in a cell viability assay.

NCI-H292 = experiment: cells; assay type: functional, cell-based; conditions: Homo sapiens;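 further: growth inhibition of NCI-H292 cells, read out with a cell viability assay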
Description: SANGER: Inhibition of human NCI-H292 cell growth in a cell viability assay.

HMV-2 cell line = experiment: cells; assay type: functional, cell-based; conditions: Homo sapiens;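 further: growth inhibition of HMV-II cells, read out with a cell viability assay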
Description: SANGER: Inhibition of human HMV-II cell growth in a cell viability assay.

NCI-H358 = experiment: cells; assay type: functional, cell-based; conditions: Homo sapiens;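 further: growth inhibition of NCI-H358 human cells, read out with a cell viability assay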
Description: SANGER: Inhibition of human NCI-H358 cell growth in a cell viability assay.

NCI-H719 = experiment: cells; assay type: functional, cell-based, Homo sapiens; conditions: Homo sapiens, NCI-H719;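 further: growth inhibition of the cultured cell line, read out with a viability assay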
Description: SANGER: Inhibition of human NCI-H719 cell growth in a cell viability assay.

NCI-H1436 = experiment: cells; assay type: functional, cell-based, Homo sapiens; conditions: Homo sapiens, NCI-H1436;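 further: growth suppression of human NCI-H1436 cells, determined with a cell viability readout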
Description: SANGER: Inhibition of human NCI-H1436 cell growth in a cell viability assay.

CHP-126 = experiment: cells; assay type: functional, cell-based, Homo sapiens; conditions: Homo sapiens, CHP-126
Description: SANGER: Inhibition of human CHP-126 cell growth in a cell viability assay.

EW-12 = experiment: SANGER: Inhibition of human EW-12 cell growth in a cell viability assay.; assay type: functional, cell-based; conditions: Homo sapiens, EW-12
PF-382 = experiment: cells; assay type: functional, cell-based, Homo sapiens; conditions: Homo sapiens, PF-382
Description: SANGER: Inhibition of human PF-382 cell growth in a cell viability assay.

HC-1 = experiment: cells; assay type: functional, cell-based, Homo sapiens; conditions: Homo sapiens, HC-1;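 further: growth inhibition of HC-1 cells measured by a cell viability assay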
Description: SANGER: Inhibition of human HC-1 cell growth in a cell viability assay.

BC1 cell line = experiment: SANGER: Inhibition of human BC-1 cell growth in a cell viability assay.; assay type: functional, cell-based; conditions: Homo sapiens, BC1

NC1(c2ccc(-c3nc4ccn5c(=O)[nH]nc5c4cc3-c3ccccc3)cc2)CCC1 [MK-2206]
pIC50 (NBsusSR): < 5.40 | pIC50 (VMRC-RCZ): < 5.40 | pIC50 (HSC-3): < 5.40 | pIC50 (NCI-H460): < 5.40 | pIC50 (SK-MEL3): < 5.40 | pIC50 (ZR-75-30): < 5.40 | pIC50 (D-423MG): 5.62 | pIC50 (KYSE-270): < 5.40 | pIC50 (HT-1376): < 5.40 | pIC50 (OVCAR-8): < 5.40 | pIC50 (NB14): < 5.40 | pIC50 (SK-MES-1): < 5.40 | pIC50 (TGBC11TKB): < 5.40 | pIC50 (H-EMC-SS): 6.30 | pIC50 (JEG-3): < 5.40 | pIC50 (NCI-H520): 6.01 | pIC50 (HT-3): < 5.40 | pIC50 (BHY): < 5.40 | pIC50 (C32): < 5.40 | pIC50 (H4): 5.46 | pIC50 (OC-314): 5.67 | pIC50 (ECC10): 5.40 | pIC50 (BCPAP): < 5.40 | pIC50 (CAL-33): < 5.40 | pIC50 (NCI-H2228): 5.64 | pIC50 (SK-LU-1): < 5.40 | pIC50 (MIA PaCa-2): < 5.40 | pIC50 (HPAF-II): < 5.40 | pIC50 (RCM-1): < 5.40 | pIC50 (PANC-08-13): < 5.40 | pIC50 (CAPAN-1): < 5.40 | pIC50 (GCT): < 5.40 | pIC50 (SW1573): < 5.40 | pIC50 (MG-63): < 5.40 | pIC50 (CHP-212): < 5.40 | pIC50 (KNS-62): 5.44 | pIC50 (BT-549): < 5.40 | pIC50 (SK-OV-3): < 5.40 | pIC50 (647-V): < 5.40 | pIC50 (Daoy): < 5.40 | pIC50 (NCI-H292): < 5.40

O=C(NCCCNc1nc(Nc2cccc(NC(=O)N3CCCC3)c2)ncc1I)c1cccs1 [BX-795]
pIC50 (NBsusSR): 5.90 | pIC50 (VMRC-RCZ): 5.56 | pIC50 (HMV-2 cell line): < 5.30 | pIC50 (HSC-3): 5.84 | pIC50 (NCI-H460): 5.61 | pIC50 (SK-MEL3): < 5.30 | pIC50 (ZR-75-30): < 5.30 | pIC50 (D-423MG): 5.79 | pIC50 (KYSE-270): < 5.30 | pIC50 (HT-1376): < 5.30 | pIC50 (OVCAR-8): < 5.30 | pIC50 (NB14): 5.97 | pIC50 (SK-MES-1): 5.53 | pIC50 (TGBC11TKB): < 5.30 | pIC50 (H-EMC-SS): < 5.30 | pIC50 (JEG-3): < 5.30 | pIC50 (NCI-H520): < 5.30 | pIC50 (HT-3): < 5.30 | pIC50 (BHY): < 5.30 | pIC50 (C32): 5.75 | pIC50 (H4): 5.96 | pIC50 (OC-314): 5.52 | pIC50 (BCPAP): 5.65 | pIC50 (CAL-33): < 5.30 | pIC50 (NCI-H358): < 5.30 | pIC50 (NCI-H2228): < 5.30 | pIC50 (SK-LU-1): < 5.30 | pIC50 (MIA PaCa-2): < 5.30 | pIC50 (HPAF-II): < 5.30 | pIC50 (RCM-1): < 5.30 | pIC50 (PANC-08-13): < 5.30 | pIC50 (CAPAN-1): < 5.30 | pIC50 (GCT): < 5.30 | pIC50 (SW1573): < 5.30 | pIC50 (MG-63): 5.77 | pIC50 (CHP-212): 5.94 | pIC50 (KNS-62): < 5.30 | pIC50 (BT-549): 5.35 | pIC50 (SK-OV-3): < 5.30 | pIC50 (647-V): < 5.30 | pIC50 (Daoy): < 5.30 | pIC50 (NCI-H292): 5.59

O=C1NC(=O)c2c1c(-c1ccccc1Cl)cc1[nH]c3ccc(O)cc3c21
pIC50 (NBsusSR): 6.02 | pIC50 (VMRC-RCZ): < 5.70 | pIC50 (HMV-2 cell line): < 5.70 | pIC50 (HSC-3): 5.93 | pIC50 (NCI-H460): < 5.70 | pIC50 (SK-MEL3): 5.88 | pIC50 (ZR-75-30): < 5.70 | pIC50 (D-423MG): < 5.70 | pIC50 (KYSE-270): 5.83 | pIC50 (HT-1376): < 5.70 | pIC50 (OVCAR-8): 5.93 | pIC50 (NB14): < 5.70 | pIC50 (SK-MES-1): 5.77 | pIC50 (TGBC11TKB): < 5.70 | pIC50 (H-EMC-SS): < 5.70 | pIC50 (JEG-3): < 5.70 | pIC50 (NCI-H520): < 5.70 | pIC50 (HT-3): < 5.70 | pIC50 (BHY): 5.94 | pIC50 (C32): 5.82 | pIC50 (H4): 6.02 | pIC50 (OC-314): < 5.70 | pIC50 (ECC10): 5.85 | pIC50 (BCPAP): < 5.70 | pIC50 (CAL-33): < 5.70 | pIC50 (NCI-H358): < 5.70 | pIC50 (NCI-H2228): < 5.70 | pIC50 (SK-LU-1): 6.00 | pIC50 (MIA PaCa-2): < 5.70 | pIC50 (HPAF-II): < 5.70 | pIC50 (RCM-1): < 5.70 | pIC50 (PANC-08-13): < 5.70 | pIC50 (CAPAN-1): < 5.70 | pIC50 (GCT): < 5.70 | pIC50 (SW1573): < 5.70 | pIC50 (MG-63): < 5.70 | pIC50 (CHP-212): 6.21 | pIC50 (BT-549): < 5.70 | pIC50 (SK-OV-3): < 5.70 | pIC50 (647-V): < 5.70 | pIC50 (Daoy): < 5.70 | pIC50 (NCI-H292): 6.34

C[C@@H](Oc1cc(-c2cnn(C3CCNCC3)c2)cnc1N)c1c(Cl)ccc(F)c1Cl [CRIZOTINIB]
pIC50 (NCI-H719): < 5.70 | pIC50 (NB14): < 5.70 | pIC50 (NCI-H1436): < 5.70 | pIC50 (CHP-126): < 5.70 | pIC50 (EW-12): < 5.70 | pIC50 (PF-382): < 5.70 | pIC50 (HC-1): < 5.70 | pIC50 (BC1 cell line): < 5.70
